Measurements published in US20080119513A1, “Sulfonamide Derivative Selectively Inhibiting Mmp-13” (priority 2004, published 2008).

Experiments:
Type in all cases: biochemical
[1] = biological target: T1, MMP-13 (Homo sapiens, UniProt P45452); experiment: Assay for inhibitory activities on MMPs (fluorogenic peptide substrate), MMP-13
T1 construct: catalytic domain (^104Tyr˜^267Gly) was amplified with RT-PCR; His-tag; enterokinase digestion-site
Procedure: In regard to MMP-13, mRNA was prepared from carcinoma cell SW1353 derived from human cartilage stimulate by IL-1 and TNF, and catalytic domain (^[…]) was amplified with RT-PCR. This was cloned in Escherichia coli expression vector […] inserted with His-tag sequence and enterokinase digestion-site, induced and expressed by IPTG (Isopropyl-β-D-thiogalactopyranoside) and expressed in an insoluble fraction. Isolation of MMP-13 from an insoluble fraction was carried out by dissolving in modifier (6 M urea) by a usual method and purification with metal chelate chromatography (Ni […] Sepharose). And then removing modifier (6 M urea) with dialyze and refolding of the enzyme spontaneously gave activated MMP-13. The enzymatic activity on MMPs was analyzed by the method described in “C. Graham Knight, Frances Willenbrock and Gillian Murphy: A novel coumarin-labelled peptide for sensitive continuous assays of the matrix metalloproteinases: FEBS LETT., 296, (1992), 263-266”. The substrate: MOCAc-[…] was purchased from Peptide Institute, Inc., Osaka, Japan. The measurement of the inhibitory activities (IC50) was carried out by the following four methods; (A) Reaction with substrate, enzyme (MMPs) and inhibitor (B) Reaction with substrate and inhibitor, without enzyme (C) Reaction with substrate and enzyme (MMPs), without inhibitor (D) Reaction with substrate only IC50 values were calculated by using the following formula and each fluorescence values of above four methods (A to D). % inhibition={1-(A-B)/(C-D)}×100 IC50 means the concentration required to inhibit 50% of the enzyme activity. The value of inhibitory activity against MMP-2, MMP-8, MMP-9, MMP-12, and MMP-13 measured by above mentioned methods are shown in Table 25 and 26.

[2] = biological target: T2, MMP-2 (Homo sapiens, UniProt P08253); experiment: Assay for inhibitory activities on MMPs (fluorogenic peptide substrate), MMP-2
T2 sequence (P08253 110-660): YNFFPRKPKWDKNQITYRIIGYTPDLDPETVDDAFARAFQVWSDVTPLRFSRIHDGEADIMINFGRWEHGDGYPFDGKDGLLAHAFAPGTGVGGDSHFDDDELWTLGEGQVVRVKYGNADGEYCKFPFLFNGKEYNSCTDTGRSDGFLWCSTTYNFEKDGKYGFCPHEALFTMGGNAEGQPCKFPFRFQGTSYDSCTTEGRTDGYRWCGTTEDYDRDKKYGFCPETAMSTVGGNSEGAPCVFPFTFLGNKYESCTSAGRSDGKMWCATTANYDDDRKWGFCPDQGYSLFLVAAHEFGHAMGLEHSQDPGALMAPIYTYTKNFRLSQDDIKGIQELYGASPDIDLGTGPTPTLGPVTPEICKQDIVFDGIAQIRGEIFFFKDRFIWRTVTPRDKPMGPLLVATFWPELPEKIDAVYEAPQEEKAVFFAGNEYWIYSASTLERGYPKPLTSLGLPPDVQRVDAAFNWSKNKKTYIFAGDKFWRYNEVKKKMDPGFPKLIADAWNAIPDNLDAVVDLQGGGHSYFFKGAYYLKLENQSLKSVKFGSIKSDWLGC
Procedure: MMP-2 was purchased from Calbiochem-Novabiochem International, Inc.
(§1) The enzymatic activity on MMPs was analyzed by the method described in “C. Graham Knight, Frances Willenbrock and Gillian Murphy: A novel coumarin-labelled peptide for sensitive continuous assays of the matrix metalloproteinases: FEBS LETT., 296, (1992), 263-266”. The substrate: MOCAc-Pro-Leu-Gly-Leu-A2Pr(DNP)-Ala-Arg-NH2 was purchased from Peptide Institute, Inc., Osaka, Japan. The measurement of the inhibitory activities (IC50) was carried out by the following four methods;
(§2) (A) Reaction with substrate, enzyme (MMPs) and inhibitor
(§3) (B) Reaction with substrate and inhibitor, without enzyme
(§4) (C) Reaction with substrate and enzyme (MMPs), without inhibitor
(§5) (D) Reaction with substrate only
(§6) IC50 values were calculated by using the following formula and each fluorescence values of above four methods (A to D).
(§7) % inhibition={1-(A−B)/(C−D)}×100
(§8) IC50 means the concentration required to inhibit 50% of the enzyme activity.
(§9) The value of inhibitory activity against MMP-2, MMP-8, MMP-9, MMP-12, and MMP-13 measured by above mentioned methods are shown in Table 25 and 26.

[3] = biological target: T3, MMP-8 (Homo sapiens, UniProt P22894); experiment: Assay for inhibitory activities on MMPs (fluorogenic peptide substrate), MMP-8
T3 construct: In regard to MMP-8, catalytic domain (^99Phe˜^262Gly) was amplified with PCR; His-tag; enterokinase digestion-site
T3 sequence (P22894 99-262): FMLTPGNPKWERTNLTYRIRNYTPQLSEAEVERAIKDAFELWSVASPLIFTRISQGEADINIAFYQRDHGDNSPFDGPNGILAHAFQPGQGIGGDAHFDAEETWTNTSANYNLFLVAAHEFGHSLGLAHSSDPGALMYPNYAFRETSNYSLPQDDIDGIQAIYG
Text: In regard to MMP-8, catalytic domain (^99Phe˜^262Gly) was amplified with PCR using commercial available Human Bone Marrow cDNA. This was cloned in Escherichia coli expression vector pTrc99AHE inserted with His-tag sequence and enterokinase digestion-site, induced and expressed by IPTG (Isopropyl-β-D-thiogalactopyranoside) and expressed in a insoluble fraction (Than F. Ho, M. Walid Qoronfleh, Robert C. Wahl, Trica A. Pulvino, Karen J. Vavra, Joe Falvo, Tracey M. Banks, Patricia G. Brake and Richard B. Ciccarelli: Gene expression, purification and characterization of recombinant human neutrophil collagenase. Gene 146, (1994) 297-301. It was prepared by the method in a slight modification). Isolation of MMP-8 from an insoluble fraction was carried out by dissolving in modifier (6 M urea) by a usual method and purification with metal chelate chromatography. And then removing modifier (6 M urea) with dialysis and refolding of the enzyme spontaneously gave activated MMP-8.
as §1, §2, §3, §4, §5, §6, §7, §8, §9

[4] = biological target: MMP-9 (Homo sapiens, UniProt P14780); experiment: Assay for inhibitory activities on MMPs (fluorogenic peptide substrate), MMP-9
Chain of MMP-9 (P14780 107-707): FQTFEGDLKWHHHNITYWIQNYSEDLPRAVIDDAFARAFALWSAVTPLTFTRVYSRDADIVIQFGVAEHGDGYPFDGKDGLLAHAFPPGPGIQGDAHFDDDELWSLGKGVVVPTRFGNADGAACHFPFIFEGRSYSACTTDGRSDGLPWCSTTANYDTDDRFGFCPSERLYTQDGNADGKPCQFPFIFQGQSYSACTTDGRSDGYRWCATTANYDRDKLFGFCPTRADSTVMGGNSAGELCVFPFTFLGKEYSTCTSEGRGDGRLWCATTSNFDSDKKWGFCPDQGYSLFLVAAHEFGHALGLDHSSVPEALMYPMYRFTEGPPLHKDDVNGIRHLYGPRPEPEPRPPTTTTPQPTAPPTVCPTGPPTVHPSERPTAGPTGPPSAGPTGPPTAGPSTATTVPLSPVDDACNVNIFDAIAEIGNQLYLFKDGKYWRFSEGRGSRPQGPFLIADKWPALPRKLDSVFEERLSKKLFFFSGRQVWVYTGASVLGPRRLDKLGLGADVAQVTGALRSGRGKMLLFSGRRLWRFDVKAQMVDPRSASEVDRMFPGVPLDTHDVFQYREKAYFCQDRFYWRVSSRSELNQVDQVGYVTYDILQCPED
Text: MMP-9 was isolated and purified by the procedure of Y. Okada et al. (Yasunori Okada, Yukio Gonoji, Katsumi Naka, Katsuro Tomita, Isao Nakanishi, Kazushi Iwata, Kyoko Yamashita, and Taro Hayakawa: Matrix metalloproteinase 9 (92-kDa gelatinase/type IV collagenase) from HT1080 human fibrosarcoma cells. Purification and activation of the precursor and enzymic properties, J. Biol. Chem., 1992, 267, 21712-21719) in combination with other following methods: 1) Yasunori Okada, Tatsuhisa Morodomi, Jan J, Enghild, Ko Suzuki, Atsushi Yasui, Isao Nakanishi, Guy Salvesen and Hideaki Nagase: Matrix metalloproteinase 2 from human rheumatoid synovial fibroblasts. Purification and activation of the precursor and enzymic properties, Eur. J. Biochem., 1990, 194, 721-730; 2) Robin V Ward, Rosalind M Hembry, John J Reynolds and Gillian Murphy: The purification of tissue inhibitor of metalloproteinase-2 from its 72 kDa progelatinase complex. Biochem. J., 1991, 278, 179-187. In detail, human fibrosarcoma ATCC HT1080 cell line was cultured to confluent in Dulbecco's Modified Medium (DMEM) containing 10% fetal-calf serum at 37° C. for 48 hours. Subsequently, the medium of confluent culture was changed to serum-free DMEM medium. To obtain MMP-9, phorbol-12-myristate-13-acetate (TPA) must be added to this serum-free DMEM medium at a concentration of 50 ng/ml. The TPA-treated medium was centrifuged at 3000 rpm for 15 min, and the supernatant was concentrated to 450 ml by a Toyo-Roshi UP-20 apparatus with an ultrafiltration membrane. Then, proMMP-9 in this concentrated solution was purified by using columns of Gelatin-Sepharose and Concanavalin A-Sepharose. The pool containing proMMP-9 was dialyzed, concentrated (Toyo-Roshi UP-20) and applied to columns of Sephacryl S-200 and Green A matrix for the separation from TIMPs. The obtained proMMP-9 fraction was activated by TPCK-Trypsin (Final conc.: 3 μg/501 React Mix.).
as §1, §2, §3, §4, §5, §6, §7, §8, §9

[5] = biological target: T4, MMP-12 (Homo sapiens, UniProt P39900); experiment: Assay for inhibitory activities on MMPs (fluorogenic peptide substrate), MMP-12
T4 construct: In regard to MMP-12, catalytic domain (^100Phe˜^263Gly) was amplified with RT-PCR; His-tag; enterokinase digestion-site
T4 sequence (P39900 100-263): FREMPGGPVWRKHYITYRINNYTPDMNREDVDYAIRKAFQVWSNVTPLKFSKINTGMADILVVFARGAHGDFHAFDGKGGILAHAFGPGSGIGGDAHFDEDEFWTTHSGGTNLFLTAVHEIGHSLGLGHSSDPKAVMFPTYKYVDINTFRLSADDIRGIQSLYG
Procedure: In regard to MMP-12, catalytic domain (^100Phe˜^263Gly) was amplified with RT-PCR from Human Placenta Total RNA. This was cloned in Escherichia coli expression vector pTrc99AHE inserted with His-tag sequence and enterokinase digestion-site, induced and expressed by IPTG (Isopropyl-β-D-thiogalactopyranoside) and expressed in an insoluble fraction. Isolation of MMP-12 from an insoluble fraction was carried out by dissolving in modifier (6 M urea) by a usual method and purification with metal chelate chromatography (Ni Chelateing Sepharose). And then removing modifier (6 M urea) with dialysis and refolding of the enzyme spontaneously gave activated MMP-12.
as §1, §2, §3, §4, §5, §6, §7, §8, §9

IC50 [1] | IC50 [2] | IC50 [3] | IC50 [4] | IC50 [5] | Compound
68.7 nM | 2220 nM | 215 nM | > 10000 nM | 232 nM | COc1ccc(C(=O)Nc2ccc(-c3ccc(S(=O)(=O)N[C@@H](CCSC)C(=O)O)cc3)cc2)cc1OC [VI-35]
24.2 nM | 2850 nM | 89.3 nM | > 10000 nM | 117 nM | COc1ccc2cc(C#Cc3ccc(-c4ccc(S(=O)(=O)N[C@@H](CCSC)C(=O)O)cc4)cc3)ccc2c1 [III-25]
26.5 nM | 188 nM |  |  |  | CSCC[C@H](NS(=O)(=O)c1ccc(-c2ccc(OCc3ccc4ccccc4c3)cc2)cc1)C(=O)O [VII-9]
55.5 nM | 222 nM | > 10000 nM | > 10000 nM | 801 nM | COc1ccc(C(=O)Nc2ccc(-c3ccc(S(=O)(=O)N[C@H](C)C(=O)O)cc3)cc2)cc1 [VI-15]
143 nM | > 10000 nM | > 10000 nM | > 10000 nM | > 10000 nM | COc1ccc2cc(C#Cc3ccc(-c4ccc(S(=O)(=O)NC(Cc5ccc(F)cc5)C(=O)O)cc4)cc3)ccc2c1 (stereo not drawn) [III-47]
96.5 nM | 747 nM |  |  |  | Cc1c(C(=O)Nc2ccc(-c3ccc(S(=O)(=O)N[C@H](Cc4ccccc4)C(=O)O)cc3)cc2)oc2ccccc12 [VI-46]
38.8 nM | 139 nM | > 10000 nM | > 10000 nM | 9010 nM | O=C(Nc1ccc(-c2ccc(S(=O)(=O)N[C@H](Cc3ccccc3)C(=O)O)cc2)cc1)c1ccc(F)c(F)c1 [VI-11]
6.17 nM | 349 nM |  |  |  | C[C@H](NS(=O)(=O)c1ccc(-c2ccc(C#Cc3cccc(C(=O)O)c3)cc2)cc1)C(=O)O [III-61]
7.93 nM | 91 nM |  |  |  | CC(C)(C)[C@H](NS(=O)(=O)c1ccc(-c2ccc(OCc3ccc4ccccc4c3)cc2)cc1)C(=O)O [VII-8]
3.85 nM | 5410 nM | 519 nM | > 10000 nM | > 10000 nM | COc1ccc2cc(C#Cc3ccc(-c4ccc(S(=O)(=O)N[C@H](CC(=O)O)C(=O)O)cc4)cc3)ccc2c1 [III-26]
16.3 nM | 602 nM | 41.6 nM | > 10000 nM | 50.7 nM | CCC(C)[C@H](NS(=O)(=O)c1ccc(-c2ccc(C#Cc3ccc4cc(OC)ccc4c3)cc2)cc1)C(=O)O (stereo partly drawn) [III-23]
16.2 nM | > 10000 nM |  |  |  | C[C@@H](NS(=O)(=O)c1ccc(-c2ccc(COc3ccc4ccccc4c3)cc2)cc1)C(=O)O [VII-11]
9.12 nM | 57.5 nM |  |  |  | COc1ccc2cc(C#Cc3ccc(-c4ccc(S(=O)(=O)N[C@H](Cc5ccc(O)cc5)C(=O)O)cc4)cc3)ccc2c1 [III-46]
21.1 nM | 261 nM |  |  |  | COCc1cccc(C#Cc2ccc(-c3ccc(S(=O)(=O)N[C@@H](CC(C)C)C(=O)O)cc3)cc2)c1 [III-64]
97.8 nM | 1170 nM |  |  |  | CC(C)Oc1cccc(C#Cc2ccc(-c3ccc(S(=O)(=O)N[C@@H](C)C(=O)O)cc3)cc2)c1 [III-60]
6.05 nM | 65.7 nM |  |  |  | O=C(O)[C@H](CO)NS(=O)(=O)c1ccc(-c2ccc(C#Cc3ccc4[nH]ccc4c3)cc2)cc1 [III-56]
10.9 nM | 494 nM |  |  |  | O=C(O)[C@H](CO)NS(=O)(=O)c1ccc(-c2ccc(C#Cc3ccc4sccc4c3)cc2)cc1 [III-55]
16.5 nM | > 10000 nM |  |  |  | COc1ccc2cc(COc3ccc(-c4ccc(S(=O)(=O)N[C@@H](C)C(=O)O)cc4)cc3)ccc2c1 [VII-10]
18.9 nM | 402 nM |  |  |  | COCc1cccc(C#Cc2ccc(-c3ccc(S(=O)(=O)N[C@@H](C)C(=O)O)cc3)cc2)c1 [III-62]
9.5 nM | 144 nM |  |  |  | COCc1cccc(C#Cc2ccc(-c3ccc(S(=O)(=O)N[C@H](C(=O)O)C(C)C)cc3)cc2)c1 [III-63]
11.3 nM | 147 nM |  |  |  | Cc1nc2cc(C#Cc3ccc(-c4ccc(S(=O)(=O)N[C@@H](C)C(=O)O)cc4)cc3)ccc2s1 [III-54]
172 nM | > 10000 nM |  |  |  | COc1ccc2cc(C#Cc3ccc(-c4ccc(S(=O)(=O)NC5(C(=O)O)CCCC5)cc4)cc3)ccc2c1 [III-65]
42.4 nM | > 10000 nM |  |  |  | COc1ccc2cc(C#Cc3ccc(-c4ccc(S(=O)(=O)NC5(C(=O)O)CCCCC5)cc4)cc3)ccc2c1 [III-66]
47.3 nM | > 10000 nM |  |  |  | O=C(Nc1ccc(-c2ccc(S(=O)(=O)N[C@@H](Cc3ccccc3)C(=O)O)cc2)cc1)c1cc2ccccc2s1 [VI-48]
